In brackets after ≈: the same amount, converted by molar mass. Read-outs that look alike come from different tables or passages of the source. Values belong to the compound of their own block, whether it stands above or below them.
What was measured:
Format in all cases: cell-based
E. coli ESBL ATCC 35218 = assay: Microdilution MIC assay; conditions: Escherichia coli, ATCC35218; E. coli ESBL ATCC 35218, 24 h at 35 °C
Method: (§1) MIC values of the compounds against bacterial strains were determined on the basis of a microwell dilution method. […] […]. Growth of microorganisms was determined visually after incubation for 24 h at 35 °C. The lowest concentration at which there was no visible growth (turbidity) was taken as the MIC.

E. coli ATCC 25922 = assay: Microdilution MIC assay; conditions: Escherichia coli, ATCC25922; E. coli ATCC 25922, 24 h at 35 °C
Method: as §1

S. gordonii NCTC 7870 = assay: Microdilution MIC assay; conditions: Streptococcus gordonii, NCTC7870; S. gordonii NCTC 7870, 24 h at 35 °C
Method: as §1

S. mutans ATCC 35668 = assay: Microdilution MIC assay; conditions: S. mutans ATCC 35668, 24 h at 35 °C
Method: as §1

S. aureus ATCC 25923 = assay: Microdilution MIC assay; conditions: Staphylococcus aureus, ATCC25923, 24 h, S. aureus ATCC 25923, 24 h at 35 °C; read-out: MIC
Method: as §1

[1] = LDH cytotoxic activity assay, HeLa; conditions: human, HeLa cells
Method: (§2) The cell lines were cultured in a cell medium (Dulbecco’s modified eagle’s or RPMI 1640) enriched with 10% (v/v) fetal bovine serum and 2% (v/v) Penicillin-Streptomycin (10,000 U/mL). First, old medium was removed out of the flask when the cells reached approximately 80% confluence. Next, cells were taken from the flasks surface using trypsin-EDTA solution and then subjected to centrifugation. Following, the cell pellet was suspended with fresh media and was inoculated into wells.
(§3) Approximately 5 × 10^3 cells in 100 μL were placed into 96-well plates as triplicates and treated with 25, 50, 75, and 100 μg/mL concentrations of test compounds at 37 °C with 5% CO2 for 24 h. LDH activity was obtained by determining absorbance at 492–630 nm using a microplate reader.

A549 = assay: cells; conditions: Homo sapiens; for LC50 (concentration causing 50% net cell loss): A549, read-out: LC50; for GI50 / IC50 / IC (total growth inhibition): A549, MTT; for IC50: read-out: IC50; for IC (total growth inhibition): read-out: TGI
Method: as §2
(§4) A cell suspension containing approximately 1 × 10^4 cells in 100 μL was seeded into the wells of 96-well culture plates. […]. The final volume of the wells was set to 200 μL by medium. Cell proliferation assay was evaluated by MTT (yellow tetrazolium MTT (3-(4,5-dimethylthiazolyl-2)-2,5-diphenyltetrazolium bromide) methods. Briefly, an MTT stock solution (5 mg of MTT/mL of distilled water) was filtered and kept at −20 °C until use. The cells were exposed to an MTT reagent (consisting of one parts of MTT stock solutions and nine parts of fresh RPMI 1640 without phenol red) for 4 h to form MTT formazan dye followed by the dye dissolved in DMSO with Sorenson’s buffer for 30 min at room temperature and then the plate was measured at 560 nm, with 690 nm as a reference interval, using a microplate reader. Each experiment was repeated at least three times for each cell line.
(§5) IC50 value is a concentration that inhibits half of the cells in vitro. The half maximal inhibitory concentration (IC50) of the test and control compounds was calculated using XLfit5 or excel spreadsheet and represent in μM at 95% confidence intervals. The proliferation assay results were expressed as the percent inhibition according to the following formula: % Inhibition = [1 - (Absorbance of Treatments /Absorbance of DMSO) × 100]. Three dose response parameters (GI50, TGI, LC50) were calculated according to the following formulas using the absorbance measurements of time zero (Tz), control growth (C), and test growth in the presence of drug (Ti). Growth inhibition of 50% (GI50) was calculated from [(Ti-Tz)/(C-Tz)] × 100 = 50, which is the drug concentration resulting in a 50% reduction in the net growth increase in control cells during the drug incubation. The drug concentration resulting in total growth inhibition (TGI) was calculated from Ti = Tz. The LC50 indicating a net loss of cells following treatment was calculated from [(Ti-Tz)/Tz] × 100 = −50.

C6 (Rat brain glioma) = assay: cells; conditions: Rattus norvegicus; for LC50 (concentration giving 50% net cell loss relative to time zero): read-out: LC50; for GI50 / IC50 / IC (total growth inhibition): C6, MTT; for IC50: read-out: IC50; for IC (total growth inhibition): read-out: TGI
Method: as §2, §4, §5

MCF7 = assay: cells; conditions: Homo sapiens; for LC50 (concentration causing 50% net cell loss relative to time zero): MCF7, read-out: LC50; for GI50 / IC50 / IC (total growth inhibition): MCF7, MTT; for IC50: read-out: IC50; for IC (total growth inhibition): read-out: TGI
Method: as §2, §4, §5

Hep3B = assay: cells; conditions: Homo sapiens; for GI50 / IC50 / IC (total growth inhibition): MTT; for IC50: read-out: IC50; for IC (total growth inhibition): read-out: TGI; for LC50 (concentration causing 50% net cell loss relative to time zero): read-out: LC50
Method: as §2, §4, §5

HT29 = assay: cells; conditions: Homo sapiens; for LC50 (concentration giving 50% net cell loss relative to time zero): HT-29, read-out: LC50; for GI50 / IC50 / IC (total growth inhibition): HT-29, HT29, MTT; for IC50: read-out: IC50; for IC (total growth inhibition): read-out: TGI
Method: as §2, §4, §5

HeLa = assay: cells; conditions: Homo sapiens; for GI50 / IC50 / IC (total growth inhibition): MTT; for IC50: read-out: IC50; for IC (total growth inhibition): read-out: TGI; for LC50 (concentration causing 50% net cell loss): read-out: LC50
Method: as §2, §4, §5

[2] = LDH cytotoxic activity assay, C6; conditions: rat, C6 glioma cells; for cytotoxicity at 24 h, 25 μg/mL: C6, 25 μg/mL; for cytotoxicity at 24 h, 50 μg/mL: C6, 50 μg/mL; for cytotoxicity at 24 h, 75 μg/mL: C6, 75 μg/mL; for cytotoxicity at 24 h, 100 μg/mL: C6, 100 μg/mL
Method: as §2, §3

normal FL cells = assay: cells; conditions: FL normal cells, MTT; for IC50: read-out: IC50; for IC (total growth inhibition): read-out: TGI
Method: as §2, §4, §5

in vitro = conditions: human, LC50
Method: as §2, §4, §5

[3] = LDH cytotoxic activity assay, HT29; conditions: human, HT29 cells; for cytotoxicity at 24 h, 25 μg/mL: HT29, 25 μg/mL; for cytotoxicity at 24 h, 50 μg/mL: HT29, 50 μg/mL; for cytotoxicity at 24 h, 75 μg/mL: HT29, 75 μg/mL; for cytotoxicity at 24 h, 100 μg/mL: HT29, 100 μg/mL
Method: as §2, §3

[4] = Streptococcus mutans, ATCC35668, 24 h, read-out: MIC

MIC (E. coli ESBL ATCC 35218): > 1000 µg/mL
MIC (E. coli ATCC 25922): > 1000 µg/mL
MIC (S. gordonii NCTC 7870): > 1000 µg/mL
MIC (S. mutans ATCC 35668; [4]): 250 µg/mL (≈ 422 µM)
MIC (S. aureus ATCC 25923): > 1000 µg/mL
GI50 (A549): > 500 µg/mL
IC50 (A549): > 500 µg/mL
GI50 (C6 (Rat brain glioma)): 2.1 µg/mL (≈ 3.54 µM)
IC50 (C6 (Rat brain glioma)): 21.9 µg/mL (≈ 36.9 µM)
GI50 (MCF7): 4.46 µg/mL (≈ 7.53 µM)
IC50 (MCF7): > 500 µg/mL
GI50 (Hep3B): 4.25 µg/mL (≈ 7.17 µM)
IC50 (Hep3B): > 500 µg/mL
GI50 (HT29): 2.75 µg/mL (≈ 4.64 µM)
IC50 (HT29): > 500 µg/mL
GI50 (HeLa): > 500 µg/mL
IC50 (HeLa): > 500 µg/mL
SMILES: CC(=O)OC[C@H]1O[C@@H](Nc2nc(-c3cccnc3)cc(-c3ccccc3C)n2)[C@H](OC(C)=O)[C@@H](OC(C)=O)[C@@H]1OC(C)=O [Compound 11, 2,3,4,6-tetra-O-acetyl-N-[4-(2-methylphenyl)-6-pyridin-3-ylpyrimidin-2-yl]-β-D-glucopyranosylamine]
cytotoxicity at 24 h, 25 μg/mL [1]: 17.2%
cytotoxicity at 24 h, 50 μg/mL [1]: 29.8%
cytotoxicity at 24 h, 75 μg/mL [1]: 45%
cytotoxicity at 24 h, 100 μg/mL [1]: 49.8%
LC50 (concentration causing 50% net cell loss) (A549): > 500 µg/mL
IC (total growth inhibition) (A549): > 500 µg/mL
LC50 (concentration giving 50% net cell loss relative to time zero) (C6 (Rat brain glioma)): 578 µg/mL (≈ 975 µM)
IC (total growth inhibition) (C6 (Rat brain glioma)): 8.83 µg/mL
LC50 (concentration causing 50% net cell loss relative to time zero) (MCF7): > 500 µg/mL
IC (total growth inhibition) (MCF7): > 500 µg/mL
IC (total growth inhibition) (Hep3B): > 500 µg/mL
LC50 (concentration causing 50% net cell loss relative to time zero) (Hep3B): > 500 µg/mL
LC50 (concentration giving 50% net cell loss relative to time zero) (HT29): > 500 µg/mL
IC (total growth inhibition) (HT29): > 500 µg/mL
IC (total growth inhibition) (HeLa): > 500 µg/mL
LC50 (concentration causing 50% net cell loss) (HeLa): > 500 µg/mL
cytotoxicity at 24 h, 25 μg/mL [2]: 26.4%
cytotoxicity at 24 h, 50 μg/mL [2]: 42.2%
cytotoxicity at 24 h, 75 μg/mL [2]: 77%
cytotoxicity at 24 h, 100 μg/mL [2]: 84.8%
GI50 (normal FL cells): 11.2 µg/mL (≈ 18.8 µM)
IC50 (normal FL cells): > 500 µg/mL
IC (total growth inhibition) (normal FL cells): > 500 µg/mL
LC50 (concentration causing 50% net cell loss) (in vitro): > 500 µg/mL
cytotoxicity at 24 h, 25 μg/mL [3]: 36.1%
cytotoxicity at 24 h, 50 μg/mL [3]: 49.3%
cytotoxicity at 24 h, 75 μg/mL [3]: 63.8%
cytotoxicity at 24 h, 100 μg/mL [3]: 90.6%

MIC (E. coli ESBL ATCC 35218): > 1000 µg/mL
MIC (E. coli ATCC 25922): > 1000 µg/mL
MIC (S. gordonii NCTC 7870): > 1000 µg/mL
MIC (S. mutans ATCC 35668): 125 µg/mL (≈ 211 µM)
MIC (S. mutans ATCC 35668; [4]): 62.5 to 125 µg/mL (≈ 105 to 211 µM)
MIC (S. aureus ATCC 25923): > 1000 µg/mL
GI50 (A549): 23.8 µg/mL (≈ 40.1 µM)
IC50 (A549): > 500 µg/mL
GI50 (C6 (Rat brain glioma)): 1.4 µg/mL (≈ 2.36 µM)
IC50 (C6 (Rat brain glioma)): 4.38 µg/mL (≈ 7.39 µM)
GI50 (MCF7): 1.41 µg/mL (≈ 2.38 µM)
IC50 (MCF7): 4.12 µg/mL (≈ 6.95 µM)
GI50 (Hep3B): 1.99 µg/mL (≈ 3.36 µM)
IC50 (Hep3B): 7.18 µg/mL (≈ 12.1 µM)
GI50 (HT29): 1.47 µg/mL (≈ 2.48 µM)
IC50 (HT29): 3.26 µg/mL (≈ 5.5 µM)
GI50 (HeLa): 1.49 µg/mL (≈ 2.51 µM)
IC50 (HeLa): 9.13 µg/mL (≈ 15.4 µM)
SMILES: CC(=O)OC[C@H]1O[C@@H](Nc2nc(-c3ccc(C)cc3)cc(-c3ccccn3)n2)[C@H](OC(C)=O)[C@@H](OC(C)=O)[C@@H]1OC(C)=O [Compound 16, 2,3,4,6-tetra-O-acetyl-N-[4-(4-methylphenyl)-6-pyridin-2-ylpyrimidin-2-yl]-β-D-glucopyranosylamine]
cytotoxicity at 24 h, 25 μg/mL [1]: 35.7%
cytotoxicity at 24 h, 50 μg/mL [1]: 62.6%
cytotoxicity at 24 h, 75 μg/mL [1]: 77.1%
cytotoxicity at 24 h, 100 μg/mL [1]: 99.2%
LC50 (concentration causing 50% net cell loss) (A549): > 500 µg/mL
IC (total growth inhibition) (A549): > 500 µg/mL
LC50 (concentration giving 50% net cell loss relative to time zero) (C6 (Rat brain glioma)): 22.9 µg/mL (≈ 38.6 µM)
IC (total growth inhibition) (C6 (Rat brain glioma)): 2.8 µg/mL
LC50 (concentration causing 50% net cell loss relative to time zero) (MCF7): 495 µg/mL (≈ 835 µM)
IC (total growth inhibition) (MCF7): 4.29 µg/mL
IC (total growth inhibition) (Hep3B): 7.33 µg/mL
LC50 (concentration causing 50% net cell loss relative to time zero) (Hep3B): 326 µg/mL (≈ 550 µM)
LC50 (concentration giving 50% net cell loss relative to time zero) (HT29): 122 µg/mL (≈ 205 µM)
IC (total growth inhibition) (HT29): 3.88 µg/mL
IC (total growth inhibition) (HeLa): 3.28 µg/mL
LC50 (concentration causing 50% net cell loss) (HeLa): 34.1 µg/mL (≈ 57.6 µM)
cytotoxicity at 24 h, 25 μg/mL [2]: 17.1%
cytotoxicity at 24 h, 50 μg/mL [2]: 28.9%
cytotoxicity at 24 h, 75 μg/mL [2]: 63.2%
cytotoxicity at 24 h, 100 μg/mL [2]: 84.7%
GI50 (normal FL cells): 1.71 µg/mL (≈ 2.89 µM)
IC50 (normal FL cells): 6.31 µg/mL (≈ 10.6 µM)
IC (total growth inhibition) (normal FL cells): 6.44 µg/mL
LC50 (concentration causing 50% net cell loss) (in vitro): > 500 µg/mL
cytotoxicity at 24 h, 25 μg/mL [3]: 26.4%
cytotoxicity at 24 h, 50 μg/mL [3]: 34.4%
cytotoxicity at 24 h, 75 μg/mL [3]: 48.6%
cytotoxicity at 24 h, 100 μg/mL [3]: 70.2%

Reference: publication PMC10387993, “New pyrimidine-N-β-D-glucosides: synthesis, biological evaluation, and molecular docking investigations” (Turkish Journal of Chemistry, 2023)
